# Measurements: US9289398B2, “Methods for the production of functional protein from DNA having a nonsense mutation and the treatment of disorders associated therewith” (PTC Therapeutics, Inc., priority 2006, dated 2016)
# Assays:
# Assay type in all cases: in vivo, human
# [1] = Body weight, CF Phase 2 study
# Description: 3-[5-(2-Fluoro-phenyl)-[1,2,4]oxadiazol-3-yl]-benzoic acid was provided in a formulation described herein.
# Statistically significant results and positive trends for secondary endpoints were also observed. In particular, although the trials were not been powered to detect statistical significant changes in secondary endpoints, statistically significant improvements from study entry to the end of the higher-dose treatment cycle in the patients' mean FEV1, FVC and weight were observed.
# [2] = Patient-reported changes in cystic fibrosis symptoms, CF Phase 2 interim analysis; settings: of 15 CF patients in interim analysis
# Description: In addition, although changes in patient's symptoms were not formally measured through the use of a quality-of-life questionnaire, trial investigators were requested to ask about changes in patients' cystic fibrosis symptoms. In the 15 patients included in the interim analysis, 6 reported general improvements in well being, 6 reported decrease in cough and 10 reported decreased mucus thickness and easier clearing of mucus.
# [3] = Pharmacokinetics, DMD Phase 2 interim analysis; settings: for Cmin: DMD patients, 4, 4, 8 mg/kg
# Procedure: 3-[5-(2-Fluoro-phenyl)-[1,2,4]oxadiazol-3-yl]-benzoic acid is provided in a formulation described herein. Treatment is administered over 28 days for each treatment cohort. An initial cohort of patients are treated daily for 28 days with 3-[5-(2-fluoro-phenyl)-[1,2,4]oxadiazol-3-yl]-benzoic acid at a given dose level (e.g., 4-, 4-, and 8-mg/kg) TID. If the initial patients tolerate the drug, then a second cohort of patients receives 3-[5-(2-fluoro-phenyl)-[1,2,4]oxadiazol-3-yl]-benzoic acid at a higher dose level (e.g., 10-, 10-, and 20-mg/kg) TID. Thus, each patient receives a total of 84 doses of 3-[5-(2-fluoro-phenyl)-[1,2,4]oxadiazol-3-yl]-benzoic acid. After the end of 28 days of treatment, each patient is followed for an additional 28 days without treatment.
# At each dose level, it is recommended that 3-[5-(2-fluoro-phenyl)-[1,2,4]oxadiazol-3-yl]-benzoic acid be taken TID at 6-, 6-, and 12-hour (±˜30 minutes) intervals. Ideally each dose is taken within ˜30 minutes after a meal (e.g., ˜7:00 AM after breakfast, ˜1:00 PM after lunch, and ˜7:00 PM after dinner). While it is realized that variations in dosing schedule may occur in the outpatient setting, it is recommended that the prescribed regimen (including dosing intervals and the relationship of dosing to meals) be followed closely on the days of PK sample collection. Clinical endpoints are evaluated using the procedures set forth above.
# Six patients were administered 3-[5-(2-fluoro-phenyl)-[1,2,4]oxadiazol-3-yl]-benzoic acid TID in a regimen consisting of 4 mg/kg with breakfast, 4 mg/kg with lunch, and 8 mg/kg with supper, for a total daily dose of 16 mg/kg. All patients were ambulatory, but had characteristic signs and symptoms of DMD, including some degree of muscle dysfunction and elevated serum CK concentrations. […] These adverse events included diarrhea in 1 patient; abdominal pain in 1 patient; and flatulence in 2 patients. […] Treatment compliance was good, with patients taking >95% of the intended total drug treatment for 28 days at the lower dose level. […]
smiles,measurement,setting,value
"O=C(O)c1cccc(-c2noc(-c3ccccc3F)n2)c1 [3-[5-(2-fluoro-phenyl)-[1,2,4]oxadiazol-3-yl]-benzoic acid]","Weight, End of Higher Dose Treatment",[1]; study entry 58.3 kg,59.0 kg
same,"Weight, Change",[1]; study entry to end of higher dose treatment,0.7 kg
same,Patients reporting decrease in cough,[2],6
same,Patients reporting decreased mucus thickness and easier clearing of mucus,[2],10
same,Patients reporting general improvements in well being,[2],6
same,Drug accumulation / induction of metabolism,[3]; 27-day treatment interval between sampling periods,neither evidence of drug accumulation nor evidence of decreased drug levels due to the induction of metabolism
same,Cmin,"[3]; Day 1, N = 6, mean",500 ng/mL
same,Cmin,"[3]; Day 27, N = 6, mean",600 ng/mL
